Three compounds from ChEMBL document CHEMBL5154740, “Novel Aurora A and Protein Kinase C (α, β1, β2, and θ) Multitarget Inhibitors: Impact of Selenium Atoms on the Potency and Selectivity” (J Med Chem, 2022) can be followed below.

The target of data set [1] is T1, Cyclin-dependent kinase 5/CDK5 activator 1 (Homo sapiens) (UniProt Q00535+Q15078). In words: Inhibition of CDK5/p25 (unknown origin) at 50 nM by Z'LYTE screening method relative to control. The data set is classed as protein-complex assay.
For data set [2], the target named is Tyrosine-protein kinase JAK2 (Homo sapiens) (UniProt O60674). In words: Inhibition of JAK2 (unknown origin) at 50 nM by Z'LYTE screening method relative to control.
The target in data set [3] is T1, Cyclin-dependent kinase 5/CDK5 activator 1 (Homo sapiens). In words: Inhibition of CDK5/p35 (unknown origin) at 50 nM by Z'LYTE screening method relative to control. In kind it is protein-complex assay.
The target of data set [4] is Tyrosine-protein kinase Lck (Homo sapiens) (UniProt P06239). In words: Inhibition of LCK (unknown origin) at 50 nM by Z'LYTE screening method relative to control.
The subject of the next data set is MDA-MB-231. In words: Inhibition of clonogenicity in human MDA-MB-231/M cells assessed as reduction in colony formation incubated for 7 days by crystal violet staining based analysis. The settings on record: time 7.0 day. In kind it is functional, cell-based.
In data set [5] the test system is 4T1. The experiment in a line: Antitumor activity against mouse 4T1 cells xenografted in BALB/c mouse assessed as tumor growth inhibition at 10 mg/kg, po administered 3 times a week for 30 days. The settings on record: time 30.0 day. The data set is classed as functional, organism-based.
Data set [6] in a line: Toxicity in BALB/c mouse implanted with mouse 4T1 cells assessed as loss of body weight at 10 mg/kg, po administered 3 times a week for 30 days. In kind it is organism-based. The settings on record: in vivo, 720 h, time 30 day.
Data set [7] concerns 4T1. The experiment in a line: Anti-metastasis activity in mouse 4T1 cells xenografted in BALB/c mouse assessed as lung metastases at 10 mg/kg, po administered 3 times a week for 30 days. In kind it is functional, organism-based. The settings on record: time 30.0 day.

Activity calls are given as the source filed them. The rule behind the calls is not given here.

Chain of Tyrosine-protein kinase Lck (Homo sapiens) (P06239 2-509 limits assumed): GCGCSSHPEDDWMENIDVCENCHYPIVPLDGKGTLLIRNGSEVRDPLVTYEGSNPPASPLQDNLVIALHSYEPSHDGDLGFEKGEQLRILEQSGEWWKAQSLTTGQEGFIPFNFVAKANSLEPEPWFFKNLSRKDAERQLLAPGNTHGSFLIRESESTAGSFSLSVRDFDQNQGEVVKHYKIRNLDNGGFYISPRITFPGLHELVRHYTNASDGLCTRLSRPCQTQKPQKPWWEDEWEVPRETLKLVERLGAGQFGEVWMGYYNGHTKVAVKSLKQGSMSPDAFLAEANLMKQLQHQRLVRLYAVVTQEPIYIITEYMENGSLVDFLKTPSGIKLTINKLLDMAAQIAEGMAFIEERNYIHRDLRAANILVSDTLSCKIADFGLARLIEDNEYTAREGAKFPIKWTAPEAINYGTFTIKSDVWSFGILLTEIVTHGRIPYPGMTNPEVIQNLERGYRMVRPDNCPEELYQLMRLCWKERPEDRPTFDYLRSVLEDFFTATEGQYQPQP
T1 sequence (Q00535 whole entry): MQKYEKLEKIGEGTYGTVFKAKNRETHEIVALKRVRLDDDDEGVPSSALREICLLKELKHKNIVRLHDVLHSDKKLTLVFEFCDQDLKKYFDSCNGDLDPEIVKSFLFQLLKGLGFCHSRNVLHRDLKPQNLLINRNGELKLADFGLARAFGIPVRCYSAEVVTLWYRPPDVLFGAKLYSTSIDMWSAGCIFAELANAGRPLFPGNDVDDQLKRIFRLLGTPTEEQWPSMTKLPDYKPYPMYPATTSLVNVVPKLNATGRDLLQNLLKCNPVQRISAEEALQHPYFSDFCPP
T1 sequence (Q15078 99-307 partner limits assumed): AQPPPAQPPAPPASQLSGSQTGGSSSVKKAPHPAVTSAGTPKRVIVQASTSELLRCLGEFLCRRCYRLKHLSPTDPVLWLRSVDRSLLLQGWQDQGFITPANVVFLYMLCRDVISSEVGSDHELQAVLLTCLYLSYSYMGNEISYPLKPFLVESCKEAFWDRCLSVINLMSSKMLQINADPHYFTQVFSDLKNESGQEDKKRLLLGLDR
Chain of Tyrosine-protein kinase JAK2 (Homo sapiens) (O60674 whole entry): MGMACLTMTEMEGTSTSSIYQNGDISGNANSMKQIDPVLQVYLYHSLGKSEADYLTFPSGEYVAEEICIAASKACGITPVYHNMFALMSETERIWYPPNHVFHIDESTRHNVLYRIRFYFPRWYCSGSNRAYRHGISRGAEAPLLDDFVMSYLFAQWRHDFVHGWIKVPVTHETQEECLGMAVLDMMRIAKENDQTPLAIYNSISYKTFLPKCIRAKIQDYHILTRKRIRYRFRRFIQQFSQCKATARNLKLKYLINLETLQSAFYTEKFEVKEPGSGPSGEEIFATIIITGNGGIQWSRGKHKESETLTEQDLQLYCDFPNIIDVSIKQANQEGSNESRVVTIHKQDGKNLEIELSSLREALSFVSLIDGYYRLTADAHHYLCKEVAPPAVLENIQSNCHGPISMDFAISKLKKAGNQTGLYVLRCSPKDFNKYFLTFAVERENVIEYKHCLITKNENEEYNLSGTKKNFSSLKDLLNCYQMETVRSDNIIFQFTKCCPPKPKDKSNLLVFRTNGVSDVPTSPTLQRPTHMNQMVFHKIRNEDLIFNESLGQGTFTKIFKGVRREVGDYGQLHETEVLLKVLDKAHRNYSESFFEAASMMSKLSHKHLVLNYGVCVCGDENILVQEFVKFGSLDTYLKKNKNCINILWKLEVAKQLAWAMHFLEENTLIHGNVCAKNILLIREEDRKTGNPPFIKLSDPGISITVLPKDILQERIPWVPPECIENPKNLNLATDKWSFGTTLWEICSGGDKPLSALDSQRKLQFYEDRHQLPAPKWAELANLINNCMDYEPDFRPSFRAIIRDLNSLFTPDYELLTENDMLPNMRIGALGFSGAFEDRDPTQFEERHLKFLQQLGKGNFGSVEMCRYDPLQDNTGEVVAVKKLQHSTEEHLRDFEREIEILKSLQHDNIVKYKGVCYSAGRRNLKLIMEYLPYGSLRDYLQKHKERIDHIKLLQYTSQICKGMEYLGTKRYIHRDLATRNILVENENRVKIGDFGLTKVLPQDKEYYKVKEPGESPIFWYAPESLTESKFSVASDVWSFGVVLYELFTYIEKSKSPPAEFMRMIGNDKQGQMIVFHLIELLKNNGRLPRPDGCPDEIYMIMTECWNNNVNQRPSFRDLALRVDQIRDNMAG

`O=c1c2ccccc2[se]n1-c1nc(NC2CCCCC2)c2nc[nH]c2n1`: the inhibition amounted to 4% in data set [1], 17% in data set [2], 2% in data set [3] and 13% in data set [4].

As for `O=c1c2ccccc2[se]n1-c1nc(N[C@H]2CC[Se]C2)c2nc[nH]c2n1`, the inhibition entry in the data set on MDA-MB-231 was “Active”. The inhibition is 8% in data set [1], 18% in data set [2], 1% in data set [3] and 2% in data set [4]. Further, the outcome in the data set with 4T1 [5] and in the data set on 4T1 [7] was Active. The Activity result in data set [6] is on record as “Non-Toxic”.

In the case of `O=C1c2ccccc2CN1c1nc(NC2CCCCC2)c2nc[nH]c2n1`, the inhibition in data set [1] turned out to be 0%; in data set [2], 15%; in data set [3], 2%; in data set [4], 7%. For the same compound, the Activity result in data set [6] is “Toxic”.
